In PubChem BioAssay (NCI):
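Cells were grown in 96-well plates and exposed to each compound for 48 hours at five concentrations; endpoints were interpolated linearly between bracketing concentrations, or set to the highest concentration if not reached. The concentration for 50% growth inhibition is given as GI50. The concentration for full growth arrest is given as TGI.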

Legend:
Test in all cases: growth of human tumour cells (NCI), 48 h
ACHN renal = test system: ACHN renal
CCRF-CEM leukemia = test system: CCRF-CEM leukemia
HCC-2998 colon = test system: HCC-2998 colon
HCT-116 colon = test system: HCT-116 colon
IGROV1 ovarian = test system: IGROV1 ovarian
K-562 leukemia = test system: K-562 leukemia
RPMI-8226 leukemia = test system: RPMI-8226 leukemia
SF-539 CNS = test system: SF-539 CNS
MDA-MB-231 breast = test system: MDA-MB-231 breast
NCI-H460 lung = test system: NCI-H460 lung

SMILES | TGI (ACHN renal) | TGI (CCRF-CEM leukemia) | TGI (HCC-2998 colon) | TGI (HCT-116 colon) | TGI (IGROV1 ovarian) | TGI (K-562 leukemia) | TGI (RPMI-8226 leukemia) | TGI (SF-539 CNS) | TGI (MDA-MB-231 breast) | TGI (NCI-H460 lung) | GI50 (ACHN renal) | GI50 (CCRF-CEM leukemia) | GI50 (HCC-2998 colon) | GI50 (HCT-116 colon) | GI50 (IGROV1 ovarian) | GI50 (K-562 leukemia) | GI50 (MDA-MB-231 breast) | GI50 (NCI-H460 lung) | GI50 (SF-539 CNS) | GI50 (RPMI-8226 leukemia)
c1ccc(-c2csc3ncn4cnnc4c23)cc1 | > 100 µM | > 100 µM | > 100 µM | > 100 µM | > 100 µM | > 100 µM | > 100 µM | > 100 µM | – | – | – | – | – | – | – | – | – | – | – | –
NC(=O)CC(N)c1nn[nH]n1 (centres undefined) | > 100 µM | > 100 µM | – | > 100 µM | > 100 µM | > 100 µM | > 100 µM | > 100 µM | > 100 µM | > 100 µM | – | – | – | – | – | – | – | – | – | –
Fc1ccc2nc(-c3nc(-c4ccccc4)n4ccccc34)[nH]c2c1 | 5.94 µM | > 100 µM | 16.9 µM | 3.82 µM | 5.3 µM | > 100 µM | – | 6.85 µM | 10.7 µM | 5.2 µM | 2.25 µM | 5.28 µM | 4.11 µM | 2 µM | 1.95 µM | 3.47 µM | 2.45 µM | 2.07 µM | 2.32 µM | –
c1ccc2c(CNCCN3CCNCC3)c3ccccc3c(CNCCN3CCNCC3)c2c1 | > 100 µM | 14.2 µM | 29.4 µM | 29.5 µM | 85.3 µM | 32.7 µM | – | 37 µM | 38.6 µM | 98.3 µM | 31.2 µM | 2.3 µM | 12.7 µM | 13.3 µM | 19.8 µM | 10.3 µM | 16 µM | 25 µM | 16.4 µM | –
Cc1ccc(C2=Nc3ccccc3SC(c3cccc4c3OCO4)C2)cc1 (centres undefined) | 53.8 µM | 37.9 µM | 41.3 µM | – | 42.4 µM | 38.3 µM | 54.2 µM | 40.2 µM | – | > 100 µM | – | – | – | – | – | – | – | – | – | –
Cn1nc(-c2ccccc2)c(C(=O)/C=C/c2ccc(Cl)cc2)c(N2CCOCC2)c1=O | 17 µM | 7.1 µM | – | 3.96 µM | 16.1 µM | 9.41 µM | 6.74 µM | 7.67 µM | – | 12.2 µM | – | – | – | – | – | – | – | – | – | –
C=CC[N+]1(CC)CCN=C1CCCCCCCCCCCCCCCCC (centres undefined) | 2.52 µM | – | 0.797 µM | 1.15 µM | 0.475 µM | – | – | 2.05 µM | 2.19 µM | 1.46 µM | 1.19 µM | – | 0.241 µM | 0.294 µM | 0.237 µM | – | 0.763 µM | 0.429 µM | 0.752 µM | –
Cc1cc2c(c(=O)o1)C1=S(SC(c3ccccc3)=C1)S2 (centres undefined) | > 100 µM | > 100 µM | – | 60.6 µM | > 100 µM | > 100 µM | > 100 µM | 56.4 µM | > 100 µM | > 100 µM | – | – | – | – | – | – | – | – | – | –
O=C1C(Nc2cccc(O)c2)=C(Sc2ccccc2)C(=O)N1Cc1ccccc1 | 31.6 µM | 10.1 µM | – | 21.5 µM | – | 17.1 µM | 4.07 µM | – | – | 29 µM | 12.6 µM | 1.88 µM | – | 9.87 µM | – | 3.71 µM | – | 11.3 µM | – | 1.36 µM
COc1cc(/C=C/C(=O)O[C@H]2[C@H](O[C@@H]3O[C@@H](C)[C@H](O)[C@@H](O)[C@H]3O)[C@@H](O)[C@H](OCCc3ccc(O)c(O)c3)O[C@@H]2COC2OCC(O)(CO)C2O)ccc1O (some centres undefined) | > 100 µM | – | – | > 100 µM | > 100 µM | > 100 µM | > 100 µM | – | > 100 µM | > 100 µM | > 100 µM | – | – | > 100 µM | > 100 µM | 63.3 µM | > 100 µM | > 100 µM | – | > 100 µM
O=[N+]([O-])/C=C/c1ccc(Cl)cc1Cl | 34.3 µM | 20.8 µM | 29 µM | 13 µM | 29.4 µM | 9.94 µM | 5.66 µM | 33 µM | – | 37.4 µM | – | – | – | – | – | – | – | – | – | –
N#C/C(=C1\OC(=N)C(c2ccc(Cl)cc2Cl)C1=O)c1ccc(Cl)cc1Cl (centres undefined) | > 100 µM | – | – | > 100 µM | > 100 µM | > 100 µM | > 100 µM | > 100 µM | – | – | – | – | – | – | – | – | – | – | – | –
O=C(c1c(O)cc(O)cc1O)C1Cc2ccccc21 (centres undefined) | > 100 µM | > 100 µM | > 100 µM | > 100 µM | > 100 µM | > 100 µM | > 100 µM | > 100 µM | – | > 100 µM | – | – | – | – | – | – | – | – | – | –
Cc1ccc(S(=O)(=O)NC(=O)OC23COCN2COC3)cc1 | > 100 µM | – | > 100 µM | > 100 µM | > 100 µM | > 100 µM | 73 µM | > 100 µM | > 100 µM | > 100 µM | – | – | – | – | – | – | – | – | – | –
CC(N)CC(=O)O (centres undefined) | > 5000 µM | > 5000 µM | > 5000 µM | > 5000 µM | > 5000 µM | > 5000 µM | > 5000 µM | > 5000 µM | – | > 5000 µM | – | – | – | – | – | – | – | – | – | –
O=[N+]([O-])c1cc(Cc2cc([N+](=O)[O-])c3cccnc3c2O)c(O)c2ncccc12 | 41.3 µM | 6.39 µM | – | 16.9 µM | 17.2 µM | > 100 µM | 41.4 µM | > 96 µM | 25.9 µM | 9.4 µM | – | – | – | – | – | – | – | – | – | –
CN1C(=NCCO)NS(=O)(=O)c2ccccc21 | > 100 µM | > 100 µM | > 100 µM | > 100 µM | > 100 µM | > 100 µM | – | > 100 µM | > 100 µM | > 100 µM | – | – | – | – | – | – | – | – | – | –
O=C(CC(=O)c1ccccc1)C(=O)Nc1ccc(Cl)cc1 | > 100 µM | > 100 µM | > 100 µM | > 61.5 µM | > 100 µM | > 100 µM | > 100 µM | > 100 µM | – | > 55.1 µM | – | – | – | – | – | – | – | – | – | –
CC(C)OC(=O)C1Cc2c([nH]c3ccccc23)C(c2ccccc2)N1 (centres undefined) | > 100 µM | > 100 µM | > 100 µM | > 100 µM | > 100 µM | > 100 µM | > 100 µM | > 100 µM | – | > 100 µM | – | – | – | – | – | – | – | – | – | –
O=C1/C(=C/c2ccccc2O)N=C(c2ccccc2)N1c1cc(C(F)(F)F)ccc1Cl | 51.4 µM | – | > 100 µM | > 100 µM | 64.3 µM | > 100 µM | > 100 µM | > 100 µM | 71.2 µM | > 100 µM | 18.6 µM | – | > 100 µM | 25 µM | 14.3 µM | > 100 µM | 20.7 µM | > 100 µM | 59.5 µM | > 100 µM
